# In PubChem BioAssay (NCI):
#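 Exposure lasted 48 hours, with cells grown in 96-well plates and compounds tested at five concentrations. At the GI50, growth is halved. Definition used: TGI = concentration required for complete inhibition of growth.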
# What was measured:
# Assay in all cases: DTP human tumour cell line panel, 48 h
# RXF 393 renal = system: RXF 393 renal
# SNB-19 CNS = system: SNB-19 CNS
# MOLT-4 leukemia = system: MOLT-4 leukemia
# NCI-H226 lung = system: NCI-H226 lung
# A498 renal = system: A498 renal
# SN12C renal = system: SN12C renal
# SNB-75 CNS = system: SNB-75 CNS
# NCI-H23 lung = system: NCI-H23 lung
# LOX IMVI melanoma = system: LOX IMVI melanoma
# PC-3 prostate = system: PC-3 prostate
Compound,TGI (RXF 393 renal) [µM],TGI (SNB-19 CNS) [µM],TGI (MOLT-4 leukemia) [µM],TGI (NCI-H226 lung) [µM],TGI (A498 renal) [µM],TGI (SN12C renal) [µM],TGI (SNB-75 CNS) [µM],TGI (NCI-H23 lung) [µM],GI50 (LOX IMVI melanoma) [µM],TGI (LOX IMVI melanoma) [µM],GI50 (RXF 393 renal) [µM],GI50 (SNB-19 CNS) [µM],GI50 (MOLT-4 leukemia) [µM],GI50 (NCI-H226 lung) [µM],GI50 (SN12C renal) [µM],GI50 (SNB-75 CNS) [µM],GI50 (PC-3 prostate) [µM],TGI (PC-3 prostate) [µM],GI50 (NCI-H23 lung) [µM],GI50 (A498 renal) [µM]
CC(C)=CC(=O)CC(=O)C(=O)Nc1ccc(Cl)c(Cl)c1,> 100,> 100,> 100,> 100,> 100,> 100,> 100,> 100,,,,,,,,,,,,
CCOC(=O)c1c(C)n(Cc2ccc(Cl)cc2Cl)c2c1cc1oc(=O)c(=O)n3c(Cc4ccccc4)nc2c13,7.34,20.9,4.55,25,,4.56,27.7,7.3,1.83,3.38,2.98,6.12,2.12,10.7,2.22,10.1,2.06,5.01,2.8,
O=C1c2ccccc2C(=O)C1C(c1ccc([N+](=O)[O-])cc1)C1C(=O)c2ccccc2C1=O,32.9,> 100,> 100,> 100,,> 100,> 100,> 100,,32.5,,,,,,,,,,
FC(F)(F)c1ccc2nc(Nc3ccc(Cl)c(Cl)c3)c(-c3ccccc3)nc2c1,> 100,> 100,> 100,> 100,,> 100,,> 100,,> 100,,,,,,,,,,
CCOC(=O)/C(C#N)=C1\N[C@H](C(=O)OCC)CO1,> 100,> 100,> 100,> 100,,> 100,,> 100,,> 100,,,,,,,,,,
CC1CC2(CC[C@@H]1O)OCCO2 (some centres not stated),> 100,> 100,> 100,,> 100,> 100,,> 100,,> 100,,,,,,,,,,
CC(=O)C1=C([O-])C(C)OC1=O.CC(=O)C1=C([O-])C(C)OC1=O.[NH-]C1CCCC[C@H]1[NH-].[Pt+4] (configuration not stated),> 100,> 100,53.9,,> 100,> 100,,> 100,96.6,> 100,> 100,> 100,3.9,,41.6,,,,47.5,15.8
CC(CCCOC(c1ccccc1)(c1ccccc1)c1ccccc1)OC(=O)Nc1cc([N+](=O)[O-])cc([N+](=O)[O-])c1 (configuration not stated),> 100,> 100,> 100,,72.3,> 100,72.5,58.7,,> 100,,,,,,,,,,
COC1CC(n2cnc3c(N)ncnc32)OC1CO (configuration not stated),,> 100,> 100,> 100,,,> 100,> 100,,,,,,,,,,,,
Nc1nc(OCc2ccccc2)nc2[nH]ncc12,,83.2,> 100,32.6,26.4,28.5,,32.7,15,36.2,,26.3,24.3,14.8,13.9,,16.8,39.9,15.7,11.2
CCC1CN2CCc3cc(OC)c(OC)cc3C2CC1CC1c2cc(OC)c(OC)cc2CCN1C(=O)CNC(=O)OC(C)(C)C (configuration not stated),51.2,53.5,23.1,53,56.2,90,73.1,56.1,,73.6,,,,,,,,,,
COC(=O)[C@]1(C)CCC[C@@]2(C)C1CCC1=C[C@@]3(C(C)C)CC[C@]12OO3 (some centres not stated),,> 100,83.1,51.2,67,> 100,,> 100,,60.1,,,,,,,,,,
CC1=CC(=O)C(C(C)=Nc2ccccc2Cl)C(=O)O1 (configuration not stated),> 100,> 100,> 100,> 100,> 100,> 100,,> 100,> 100,> 100,> 100,> 100,> 100,> 100,> 100,,> 100,> 100,> 100,> 100
Clc1ccc(CN2COc3c(cc(Cl)c4cccnc34)C2)cc1,5.86,16,5.02,8.67,24.8,15.6,11,6.8,,2.97,,,,,,,,,,
CC(=O)c1cccc(NCn2nnc3ccccc32)c1,> 100,> 100,> 100,> 100,> 100,> 100,> 100,> 100,,> 100,,,,,,,,,,
CCO[C@@H]1C2C=CC(C2)[C@H]1[N+](=O)[O-] (some centres not stated),> 100,> 100,> 100,> 100,> 100,> 100,> 100,> 100,,> 100,,,,,,,,,,
Cc1cccc(C)c1NC(=O)CCCC(=O)C1CCC/C1=N\NC(=O)C(=O)NN (configuration not stated),> 100,> 100,> 100,> 100,> 100,> 100,> 100,> 100,,> 100,,,,,,,,,,
COC(=O)C(=O)C(C(=O)C=C(C)C)C(=O)C(=O)Nc1cccc(C(C)=O)c1 (configuration not stated),> 100,> 100,> 100,> 100,> 100,> 100,> 100,> 100,,> 100,,,,,,,,,,
COc1ccc(COCC(Cn2ccnc2)OCc2ccc(C(=O)O)cc2)cc1 (configuration not stated),> 100,,> 100,> 100,> 100,> 100,> 100,> 100,,> 100,,,,,,,,,,
CC(C)[C@@H](COC(C)(C)C)N=CN1CCc2c([nH]c3ccccc23)C1,> 100,> 100,> 100,> 100,> 100,> 100,> 100,> 100,,> 100,,,,,,,,,,
CC(=O)OC1C2(CC3N4C(=O)C5(CO)SSC4(CC31O)C(=O)N5C)OC(C)C(C)(C)C2=O (configuration not stated),0.151,0.0666,0.0622,0.0553,0.0717,0.05,,0.0932,< 0.01,< 0.0121,0.0473,0.0184,< 0.0179,0.0142,< 0.0114,,0.148,0.588,< 0.0371,0.0352
